Holding throughout (type): cell-based
The target of test [1] is T1, KAT2A (Homo sapiens, UniProt Q92830). As to the kind of experiment: KAT2A degradation, Western Blot (Jess), MOLM-13 cells. The arrangement: degrader, Western blot. In short, it runs like this: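 MOLM-13 cells in RPMI 1640/20% FBS were treated with compound for 24 h at 37 °C. RIPA lysates (4 μg) were run on a capillary Western (Jess) with anti-KAT2A antibody and chemiluminescent detection. DC50 comes from percent protein reduction versus DMSO control.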
T1 sequence (Q92830 whole entry): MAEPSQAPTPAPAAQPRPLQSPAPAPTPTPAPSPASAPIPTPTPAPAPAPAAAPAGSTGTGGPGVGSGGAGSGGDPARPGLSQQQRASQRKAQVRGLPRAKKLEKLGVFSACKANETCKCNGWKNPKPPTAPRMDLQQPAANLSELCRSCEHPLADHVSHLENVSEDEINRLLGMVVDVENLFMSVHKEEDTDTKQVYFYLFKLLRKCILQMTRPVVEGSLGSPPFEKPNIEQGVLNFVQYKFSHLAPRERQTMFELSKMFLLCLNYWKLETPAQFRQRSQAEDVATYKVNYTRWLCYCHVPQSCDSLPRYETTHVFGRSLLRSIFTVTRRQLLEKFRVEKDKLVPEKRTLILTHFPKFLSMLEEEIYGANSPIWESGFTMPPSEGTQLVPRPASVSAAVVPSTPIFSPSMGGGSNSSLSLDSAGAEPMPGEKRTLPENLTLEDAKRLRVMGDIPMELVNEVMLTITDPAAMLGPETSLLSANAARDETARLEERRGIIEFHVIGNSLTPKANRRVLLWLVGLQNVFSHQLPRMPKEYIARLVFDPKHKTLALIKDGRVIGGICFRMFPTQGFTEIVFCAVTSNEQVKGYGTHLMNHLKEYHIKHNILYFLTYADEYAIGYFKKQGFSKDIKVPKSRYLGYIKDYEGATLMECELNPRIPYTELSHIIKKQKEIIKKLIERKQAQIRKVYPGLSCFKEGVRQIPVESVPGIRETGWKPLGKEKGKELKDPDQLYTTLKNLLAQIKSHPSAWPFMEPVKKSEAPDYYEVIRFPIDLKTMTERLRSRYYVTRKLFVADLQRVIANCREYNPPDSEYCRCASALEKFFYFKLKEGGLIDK

The target in test [2] is T1, KAT2A. The experiment in a line: Western blot of KAT2A level in acute myeloid leukemia MOLM-13 cells, 48 h. Conditions: FIG. 2 (A). The arrangement: degrader, Western blot. How it is done:
FIG. 2. Provided compounds can provide various activities. (A): Provided technologies can reduce KAT2A and KAT2B levels and histone acetylation levels. […] Cell count data after 8 days of treatment with compound 22 relative to DMSO control are presented as examples to confirm inhibition. […] (C): Provided technologies can modulate cell states and induce differentiation. […] EC50=0.3 nM.

Test [3] deals with neuroendocrine prostate cancer cells, e.g., LASCPC-01 cells. The experiment in a line: Differentiation GSEA signatures from RNA-Seq, LASCPC-01. The settings on record: FIG. 3. How it is done: In some embodiments, GSEA signatures are utilized for assessing cell states, differentiation, etc. In some assessments, differentiation GSEA signatures, e.g., from RNA-Seq was performed. A useful protocol is described herein as an example. In some assessments, LASCPC-01 cells, NEPC organoid cell pellets, or NCI-H1048 tumor pieces were flash frozen upon harvest and stored at −80° C. RNA was isolated, mRNA library was prepared (poly A enrichment) and sequencing was run. Reads were aligned to reference v38 using Kallis to generate gene count matrices for each sample. The gene count matrix was the input to the ML pipelines that generate normal atlas scores and cell state classification. It was also input to differential expression analysis using Edger in R. The output of differential expression was input to gene set enrichment analysis (GSEA) to define gene sets that were most shifted by treatment. For defining specific epithelial differentiation endpoints to generate the solid tumor differentiation box plots, cell state gene sets resulting from GSEA are consolidated by cell state to define a consensus set of genes that define epithelial differentiation. Other suitable technologies may also utilized in accordance with the present disclosure.

The target of test [4] is T1, KAT2A. As to the kind of experiment: KAT2A reduction in LASCPC-01 cells. The arrangement: degrader, Western blot. As to the method:
MOLM-13 cells or NCI-H1048 cells were washed with PBS, then lysed with RIPA buffer containing 1×protease and phosphatase inhibitors (SantaCruz Biotechnologies Cat #sc-24948A). Protein was isolated by centrifugation at 12,000×g for 10 minutes at 4° C. and supernatant was collected. Protein was quantified via Bradford assay. Samples were diluted to 4 μg lysate in 16 μL RIPA buffer and then 4 μL of Jess Sample Buffer. Samples were heated at 95° C. for 5 minutes. Samples were loaded onto 12-230 kDa Jess™ Separation Module, 8×25 capillary cartridges (SM-W004, Biotechne). Antibodies loaded were: Primary antibody for KAT2A (GCN5L2 (C26A10) Rabbit mAb (3305, CST)) and for KAT2B (PCAF (C14G9)) Rabbit mAb (3378, CST) at 1:1000 and Anti-Rabbit Detection Module for Jess™ (Cat No #DM-001, Biotechne). Signal was detected by chemiluminescence.
In some embodiments, assessment was performed in LASCPC-01 cells, and reduction of KAT2A and KAT2B levels, including in some cases selectivity for one over the other, was confirmed. In some embodiments, DC50 and/or DC90 were assessed. In some embodiments, DC50 for various compounds was about or no more than about 1 nM. In some embodiments, DC90 for various compounds was about or no more than about 1 nM. In some embodiments, selectivity for the same polypeptide by a compound was observed across multiple types of cells (e.g., when assessed using DC50 and/or DC90). In some embodiments, certain compounds can provide improved properties and/or activities (e.g., potency). Data from certain assessments for certain compounds are presented below as examples (NT: not tested). It has been confirmed that various compounds described herein, including multiple compounds in Table 1, can be deemed to provide further improved properties and/or activities compared to the compound(s) in the table below for certain contexts, aspects, and/or uses.

Take `CN1C[C@H](Nc2cnn(C)c(=O)c2Br)C[C@H](c2ccc(C(=O)N3CCC(CN4CCN(c5ccc6c(c5)CN(C5CCC(=O)NC5=O)C6=O)CC4)CC3)cc2)C1` (stereo partly drawn) [Compound 22, 3-(5-(4-((1-(4-((3R,5R)-5-((5-bromo-1-methyl-6-oxo-1,6-dihydropyridazin-4-yl)amino)-1-methylpiperidin-3-yl)benzoyl)piperidin-4-yl)methyl)piperazin-1-yl)-1-oxoisoindolin-2-yl)piperidine-2,6-dione]: the EC90 came out at 600 pM on KAT2A [1] (24 h, MOLM-13, KAT2A, read-out: DC90 (the source's name)) and 670 pM at KAT2A [4] (LASCPC-01, KAT2A, read-out: DC90 (the source's name)). Further, the DC50 on KAT2A [1] (MOLM-13, KAT2A, read-out: DC50) was 110 pM; at KAT2A [1] (MOLM-13 cells, KAT2A, 24 h, Western Blot, vs DMSO, read-out: KAT2A MOLM-13 DC50) it was under 1000 pM; at KAT2A [4] (LASCPC-01, KAT2A) it was 60 pM. Moreover, the KAT2A levels result on KAT2A [1] (MOLM-13 cells, FIG. 2) was “potently reduce KAT2A and KAT2B levels”; on KAT2A [4] (LASCPC-01 cells, FIG. 3) it was “potently reduce KAT2A and KAT2B levels”. At KAT2A [2], the “reduction of KAT2A level” value is on record as “confirm such reduction”. Besides, in test [3], the induction of differentiation entry is listed as “induce differentiation (e.g., epithelial, neural, and/or microglial)”.

Values taken from patent publication US20260306640A1, “TECHNOLOGIES TARGETING CELL STATES” (Auron Therapeutics, Inc., priority 2023, published 2026).
